One experiment concerns the target T1, human STING (hSTING) (Homo sapiens, UniProt Q86WV6).
T1 construct: host or cells: HEK-Blue ISG cells (HEK293-derived SEAP reporter line)
Put plainly: Inhibition test of intracellular human STING (hSTING) pathway using SEAP reporter cells (HEK-Blue ISG), stimulation with Compound 3. In kind it is cell-based. Further details: hSTING inhibitory activity: scale not given here. The note with it: Compound 3 10 nM stimulation, 21 hours; for IC50: read-out: hSTING inhibitory activity. In a few lines:
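HEK-Blue ISG cells with IRF-inducible SEAP reporter, pretreated 1 h with compound (final 0.1 to 10 μM), then stimulated with Compound 3 (final 10 nM) for 21 h at 37° C. Supernatant SEAP measured colorimetrically; IC50 from log-concentration regression, normalized to stimulated (100%) and unstimulated (0%) controls.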

Experiment [1] relates to STING activation (IFN-β production in THP-1 cells). The experiment is described as follows: Human IFN-β production inhibition test by cGAMP stimulation in THP-1 cells. Further details: IFN-β bioinhibitory activity: scale not given here. As to conditions: 2'3'-cGAMP transfection, 18 hours, IFN-β ELISA; for IC50: Homo sapiens, read-out: IFN-β bioinhibitory activity. In kind it is cell-based. In a few lines:
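PMA-primed (100 nM, overnight) THP-1 cells pretreated 1 h with compound at 0.001 to 1 μM (0.1% DMSO), then transfected with 0.12 μg/well 2′3′-cGAMP and cultured 18 hours. Supernatant IFN-β measured by ELISA; IC50 by regression against log concentration, normalised to cGAMP-only (100%) and unstimulated (0%) controls.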
Background: An ELISA detects its analyte on a solid surface through an enzyme-linked reagent.

Counter-ions that a name gives are not always drawn.

T1 sequence (Q86WV6 whole entry H232R): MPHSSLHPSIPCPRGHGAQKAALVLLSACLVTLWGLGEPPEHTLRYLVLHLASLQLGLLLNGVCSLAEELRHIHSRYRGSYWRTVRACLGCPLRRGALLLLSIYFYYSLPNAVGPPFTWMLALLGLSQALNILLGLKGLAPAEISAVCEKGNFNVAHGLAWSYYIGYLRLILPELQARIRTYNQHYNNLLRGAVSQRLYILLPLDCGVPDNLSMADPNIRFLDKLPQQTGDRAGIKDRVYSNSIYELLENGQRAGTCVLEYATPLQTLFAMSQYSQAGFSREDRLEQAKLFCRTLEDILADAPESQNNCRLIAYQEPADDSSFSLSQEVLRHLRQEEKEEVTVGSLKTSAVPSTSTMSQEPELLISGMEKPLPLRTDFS

As for `Cc1cc2nc(Nc3c[nH]c4ccc(Br)nc34)[nH]c2cc1C` [Embodiment 79, N-(5-bromo-1H-pyrrolo[3,2-b]pyridin-3-yl)-5,6-dimethyl-1H-benzo[d]imidazol-2-amine], at human STING (hSTING), the hSTING inhibitory activity entry was “* *”. In experiment [1], the IC50 was 100 to 1000 nM.

As for `Clc1ccc2[nH]cc(Nc3nc4cc(Oc5ccccc5)ccc4n3C3CC3)c2n1` [Embodiment 118, N-(5-Chloro-1H-pyrrolo[3,2-b]pyridin-3-yl)-1-cyclopropyl-5-phenoxy-1H-benzo[d]imidazol-2-amine], the hSTING inhibitory activity result at human STING (hSTING) is “* * *”. Besides, in experiment [1], the IC50 is 100 to 1000 nM.

On to `COCCn1c(Nc2c[nH]c3ccc(Cl)nc23)nc2cc(C(F)(F)F)ccc21` [Embodiment 178, N-(5-chloro-1H-pyrrolo[3,2-b]pyridin-3-yl)-1-(2-methoxyethyl)-5-(trifluoromethyl)-1H-benzo[d]imidazol-2-amine], for which the IC50 was at least 10000 nM on human STING (hSTING) and at least 1000 nM in experiment [1].

Consider `OCCn1c(Nc2c[nH]c3ccc(Cl)cc23)nc2cc(C(F)(F)F)ccc21` [Embodiment 223, 2-{2-[(5-chloro-1H-indol-3-yl)amino]-5-(trifluoromethyl)-1H-benzo[d]imidazol-1-yl}ethanol], for which, on human STING (hSTING), the hSTING inhibitory activity entry was “* * *”. In addition, in experiment [1], the IFN-β bioinhibitory activity result was “* *”.

Take `FC(F)(F)c1ccc2c(c1)nc(Nc1c[nH]c3ccc(I)cc13)n2C1CC1` [Embodiment 232, 1-Cyclopropyl-N-(5-iodo-1H-indol-3-yl)-5-(trifluoromethyl)-1H-benzo[d]imidazol-2-amine]: the hSTING inhibitory activity result on human STING (hSTING) is listed as “* *”. In addition, the IFN-β bioinhibitory activity result in experiment [1] is recorded as “* *”.

Take `Cn1c(Nc2c[nH]c3ccc(Cl)nc23)nc2cc(Br)ccc21` [Embodiment 169, 5-bromo-N-(5-chloro-1H-pyrrolo [3,2-b]pyridin-3-yl)-1-methyl-1H-benzo[d]imidazol-2-amine]: at human STING (hSTING), the IC50 lay within 1000 to 10000 nM. The IFN-β bioinhibitory activity entry in experiment [1] is “* *”.

In the case of `Cn1c(Nc2c[nH]c3ccc(Cl)cc23)nc2cc(C(F)(F)F)cc(Cl)c21` [Embodiment 249, 7-Chloro-N-(5-chloro-1H-indol-3-yl)-1-methyl-5-(trifluoromethyl)-1 H-benzo[d]imidazol-2-amine], the hSTING inhibitory activity entry on human STING (hSTING) was “* * *”. Also, in experiment [1], the IFN-β bioinhibitory activity result was “* *”.

On to `CCn1c(Nc2c[nH]c3ccc(Cl)cc23)nc2cc(C(F)(F)F)cc(F)c21` [Embodiment 240], for which the hSTING inhibitory activity entry on human STING (hSTING) is given as “* * *”. The IFN-β bioinhibitory activity entry in experiment [1] is on record as “* *”.

Consider `CN(C)n1c(Nc2c[nH]c3ccc(Cl)cc23)nc2cc(Cl)ccc21` [Embodiment 265, 5-Chloro-N2-(5-chloro-1H-indol-3-yl)-N1,N1-dimethyl-1H-benzo [d]imidazole-1,2-diamine], for which the hSTING inhibitory activity entry on human STING (hSTING) was “* * *”. The IFN-β bioinhibitory activity entry in experiment [1] is given as “* *”.

Take `Cc1cc(C)c2nc(Nc3c[nH]c4ccc(Cl)nc34)[nH]c2c1` [Embodiment 87, N-(5-Chloro-1H-pyrrolo[3,2-b]pyridin-3-yl)-4,6-dimethyl-1H-benzo[d]imidazol-2-amine]: the hSTING inhibitory activity result at human STING (hSTING) is on record as “* *”. Also, the IC50 in experiment [1] was in the range of 100 to 1000 nM.

Consider `Cn1c(Nc2c[nH]c3cc(F)c(Cl)cc23)nc2cc(C(F)(F)F)ccc21` [Embodiment 262, N-(5-Chloro-6-fluoro-1H-indol-3-yl)-1-methyl-5-(trifluoromethyl)-1 H-benzo[d]imidazol-2-amine], for which the hSTING inhibitory activity entry on human STING (hSTING) was “* * *”. Besides, in experiment [1], the IFN-β bioinhibitory activity result was “* *”.

With `CCCCn1c(Nc2c[nH]c3ccc(Br)nc23)nc2ccc(Oc3ccccc3)cc21` [Embodiment 91, N-(5-bromo-1H-pyrrolo[3,2-b]pyridin-3-yl)-1-butyl-6-phenoxy-1H-benzo[d]imidazol-2-amine], the hSTING inhibitory activity entry on human STING (hSTING) is reported as “* * *”. For the same molecule, the IC50 in experiment [1] fell in the range of 100 to 1000 nM.

Turning to `Brc1ccc2[nH]cc(Nc3nc4cc(I)ccc4[nH]3)c2n1` [Embodiment 80, N-(5-bromo-1H-pyrrolo[3,2-b]pyridin-3-yl)-5-iodo-1H-benzo [d]imidazol-2-amine], the hSTING inhibitory activity entry on human STING (hSTING) is on record as “* * *”. Besides, the IFN-β bioinhibitory activity result in experiment [1] is “* * *”.

For the molecule `Brc1ccc2[nH]cc(Nc3nc4cc(-c5ccccc5)ccc4[nH]3)c2n1` [Embodiment 60, N-(5-bromo-1H-pyrrolo[3,2-b]pyridin-3-yl)-5-phenyl-1H-benzo [d]imidazol-2-amine], the hSTING inhibitory activity result at human STING (hSTING) is on record as “* * *”. Further, the IC50 at human STING (hSTING) fell in the range of 1000 to 10000 nM; in experiment [1], 100 to 1000 nM.

Regarding `CCc1ccc2[nH]cc(Nc3nc4ccc(Oc5ccc(F)cc5)cc4n3C)c2n1` [Embodiment 192, N-(5-ethyl-1H-pyrrolo[3,2-b]pyridin-3-yl)-6-(4-fluorophenoxy)-1-methyl-1H-benzo[d]imidazole-2-amine formate], at human STING (hSTING), the hSTING inhibitory activity result is reported as “* *”. Also, in experiment [1], the IC50 was in the range of 100 to 1000 nM.

For the molecule `OCCn1c(Nc2c[nH]c3ccc(Cl)cc23)nc2cc(C(F)(F)F)cc(F)c21` [Embodiment 236, 2-{2-[(5-chloro-1H-indol-3-yl)amino]-7-fluoro-5-(trifluoromethyl)-1H-benzo[d]imidazol-1-yl}ethane-1-oar], on human STING (hSTING), the hSTING inhibitory activity result is given as “* * *”. Besides, in experiment [1], the IFN-β bioinhibitory activity result was “* *”.

Turning to `CCCn1c(Nc2c[nH]c3ccc(Cl)cc23)nc2cc(C(F)(F)F)cc(F)c21` [Embodiment 238, N-(5-Chloro-1H-indol-3-yl)-7-fluoro-1-propyl-5-(trifluoromethyl)-1H-benzo[d]imidazol-2-amine], the hSTING inhibitory activity result on human STING (hSTING) is on record as “* * *”. In addition, the IFN-β bioinhibitory activity entry in experiment [1] is listed as “* *”.

Regarding `CC(C)Oc1ccc2[nH]c(Nc3c[nH]c4ccc(Cl)nc34)nc2c1` [Embodiment 158, N-(5-Chloro-1H-pyrrolo[3,2-b]pyridin-3-yl)-5-isopropoxy-1H-benzo [d]imidazol-2-amine], the hSTING inhibitory activity result at human STING (hSTING) is listed as “* *”. Besides, the IC50 in experiment [1] is 100 to 1000 nM.

Turning to `Cn1c(Nc2c[nH]c3ccc(Cl)nc23)nc2c(N3CCCCC3)cccc21` [Embodiment 157, N-(5-chloro-1H-pyrrolo[3,2-b]pyridin-3-yl)-1-methyl-4-(piperidin-1-yl)-1H-benzo[d]imidazole-2-amine formate], the hSTING inhibitory activity result at human STING (hSTING) is “* *”. The IC50 in experiment [1] was in the range of 100 to 1000 nM.

Take `CC(C)n1c(Nc2c[nH]c3ccc(Cl)cc23)nc2cc(C(F)(F)F)cc(F)c21` [Embodiment 242, N-(5-Chloro-1H-indol-3-yl)-7-fluoro-1-isopropyl-5-(trifluoromethyl)-1H-benzo[d]imidazol-2-amine]: the hSTING inhibitory activity result on human STING (hSTING) is listed as “* * *”. In addition, in experiment [1], the IFN-β bioinhibitory activity entry is “* *”.

For `CCn1c(Nc2c[nH]c3ccc(Cl)cc23)nc2cc(OC(F)(F)F)ccc21` [Embodiment 251, N-(5-Chloro-1H-indol-3-yl)-1-ethyl-5-(trifluoromethoxy)-1H-benzo [d]imidazol-2-amine], the hSTING inhibitory activity entry on human STING (hSTING) is listed as “* * *”. The IFN-β bioinhibitory activity entry in experiment [1] is given as “* *”.

Take `FC(F)(F)c1ccc2c(c1)nc(Nc1c[nH]c3ccc(Cl)cc13)n2N1CCCC1` [Embodiment 247, N-(5-Chloro-1H-indol-3-yl)-1-(pyrrolidin-1-yl)-5-(trifluoromethyl)-1H-benzo[d]imidazol-2-amine]: the hSTING inhibitory activity entry on human STING (hSTING) is “* *”. Further, the IC50 in experiment [1] is 100 to 1000 nM.

Consider `Cn1c(Nc2c[nH]c3ccc(Cl)nc23)nc2cc(OC(F)(F)F)ccc21` [Embodiment 210, N-(5-Chloro-1H-pyrrolo[3,2-b]pyridin-3-yl)-1-methyl-5-(trifluoromethoxy)-1H-benzo[d] imidazol-2-amine], for which the hSTING inhibitory activity result at human STING (hSTING) is on record as “* *”. Moreover, the IFN-β bioinhibitory activity result in experiment [1] was “* *”.

Take `C#CCn1c(Nc2c[nH]c3ccc(Cl)cc23)nc2cc(OC(F)(F)F)ccc21` [Embodiment 253, N-(5-Chloro-1H-indol-3-yl)-1-(prop-2-yn-1-yl)-5-(trifluoromethoxy)-1H-benzo[d]imidazole-2-amine]: the hSTING inhibitory activity entry at human STING (hSTING) is on record as “* * *”. Besides, the IFN-β bioinhibitory activity entry in experiment [1] was “* *”.

For the molecule `Cn1c(Nc2c[nH]c3ccc(Cl)cc23)nc2cc(C(F)(F)F)cc(C#N)c21` [Embodiment 264, 2-[(5-Chloro-1H-indol-3-yl)amino]-1-methyl-5-(trifluoromethyl)-1H-benzo[d]imidazole-7-carbonitrile], the hSTING inhibitory activity entry on human STING (hSTING) was “* * *”. Moreover, the IC50 in experiment [1] lay in the range of 100 to 1000 nM.

For the molecule `Fc1ccc2[nH]c(Nc3c[nH]c4ccc(Br)cc34)nc2c1` [Embodiment 33, N-(5-bromo-1H-indol-3-yl)-5-fluoro-1H-benzo[d]imidazol-2-amine], the hSTING inhibitory activity result on human STING (hSTING) is “* * *”. Besides, in experiment [1], the IC50 lay in the range of 100 to 1000 nM.

Regarding `Cn1c(Nc2c[nH]c3ccc(Cl)cc23)nc2cc(OC(F)(F)F)ccc21` [Embodiment 246, N-(5-Chloro-1H-indol-3-yl)-1-methyl-5-(trifluoromethoxy)-1H-benzo[d]imidazol-2-amine], the hSTING inhibitory activity entry on human STING (hSTING) is “* * *”. The IFN-β bioinhibitory activity entry in experiment [1] is “* * *”.

Take `FC(F)(F)c1ccc2c(c1)nc(Nc1c[nH]c3ccc(Cl)cc13)n2C1CC1` [Embodiment 57, N-(5-chloro-1H-indol-3-yl)-1-cyclopropyl-5-(trifluoromethyl)-1H-benzo[d]imidazol-2-amine]: at human STING (hSTING), the hSTING inhibitory activity result is “* * *”. Moreover, the IFN-β bioinhibitory activity entry in experiment [1] is reported as “* *”.

The record behind these values is patent US20240279205A1, “NOVEL BENZIMIDAZOLE DERIVATIVE” (Carna Biosciences, Inc., priority 2020, published 2024).
